Measurements taken from patent publication US12077503B2, “Substituted cyclic amides and their use as herbicides” (FMC CORPORATION, priority 2015, dated 2024).

Assays:
Format in all cases: in vivo
[1] = system: giant foxtail (Setaria faberii); assay: Test A preemergence
Method in brief: (§1)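 Preemergence directed soil spray on seeded pots, or postemergence application to plants 2–10 cm, one- to two-leaf. Solvent mixture non-phytotoxic, with surfactant. Scored ~10 d later, visually, 0–100 vs untreated.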

[2] = system: ryegrass, Italian (Italian ryegrass, Lolium multiflorum); assay: Test A preemergence
Method in brief: as §1

[3] = system: barnyardgrass (Echinochloa crus-galli); assay: Test A preemergence
Method in brief: as §1

[4] = system: Kochia (Kochia scoparia); assay: Test A preemergence
Method in brief: as §1

[5] = system: ragweed (common ragweed, Ambrosia elatior); assay: Test A preemergence
Method in brief: as §1

[6] = system: pigweed (Amaranthus retroflexus); assay: Test A preemergence
[7] = system: sedge, umbrella (small-flower umbrella sedge, Cyperus difformis); assay: Test B flooded paddy test; details: 250 g ai/ha, Flood, 0 to 100 scale where 0 is no effect and 100 is complete control
Method in brief: (§2)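 2-leaf plants; pots flooded 3 cm over soil; cpd added to paddy water; depth held; greenhouse 13–15 d; visual rating vs controls, 0 = no effect, 100 = complete control.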

[8] = system: rice (Oryra sativa); assay: Test B flooded paddy test; details: 250 g ai/ha, Flood, 0 to 100 scale where 0 is no effect and 100 is complete control
Method in brief: as §2

[9] = system: barnyardgrass (Echinochloa crus-galli); assay: Test B flooded paddy test; details: 250 g ai/ha, Flood, 0 to 100 scale where 0 is no effect and 100 is complete control
Method in brief: as §2

[10] = system: ducksalad (Heteranthera limosa); assay: Test B flooded paddy test; details: 250 g ai/ha, Flood, 0 to 100 scale where 0 is no effect and 100 is complete control
Method in brief: as §2

[11] = system: wheat (Triticum aestivum); assay: Test A postemergence
Method in brief: as §1

[12] = system: giant foxtail (Setaria faberii); assay: Test A postemergence; details: for Plant response rating, Foxtail, Giant: Postemergence, 0 to 100 scale where 0 is no effect and 100 is complete control
Method in brief: as §1

[13] = system: ryegrass, Italian (Italian ryegrass, Lolium multiflorum); assay: Test A postemergence
Method in brief: as §1

[14] = system: barnyardgrass (Echinochloa crus-galli); assay: Test A postemergence; details: for Plant response rating, Barnyardgrass: Postemergence, 0 to 100 scale where 0 is no effect and 100 is complete control
Method in brief: as §1

[15] = system: Kochia (Kochia scoparia); assay: Test A postemergence
Method in brief: as §1

[16] = system: ragweed (common ragweed, Ambrosia elatior); assay: Test A postemergence; details: for Plant response rating, Ragweed: 500 g ai/ha
Method in brief: as §1

[17] = system: corn (Zea mays); assay: Test A postemergence
Method in brief: as §1

[18] = system: blackgrass (Alopecurus myosuroides); assay: Test A postemergence; details: for Plant response rating, Blackgrass: 500 g ai/ha
Method in brief: as §1

[19] = system: Galium (catchweed bedstraw, Galium aparine); assay: Test A postemergence
Method in brief: as §1

[20] = system: pigweed (Amaranthus retroflexus); assay: Test A postemergence; details: for Plant response rating, Pigweed: 500 g ai/ha
Method in brief: as §1

[21] = 500 g ai/ha, preemergence, visual injury rating about 10 d after treatment, 0 to 100 scale (0 no effect, 100 complete control)
[22] = 125 g ai/ha, Postemergence, visual injury after approximately 10 d, 0 to 100 scale where 0 is no effect and 100 is complete control
[23] = 500 g ai/ha, postemergence, visual injury, 0 to 100 scale (0 no effect, 100 complete control), approx. 10 d
[24] = 125 g ai/ha, visual injury after approximately 10 d
[25] = postemergence, visual injury, 0 to 100 scale (0 no effect, 100 complete control), approx. 10 d
[26] = 125 g ai/ha, Preemergence, visual injury after approximately 10 d, 0 to 100 scale where 0 is no effect and 100 is complete control
[27] = Preemergence, 500 g ai/ha, visual injury approx. 10 d
[28] = 125 g ai/ha, postemergence, visual injury rating on 0 to 100 scale (0 no effect, 100 complete control), approx. 10 d
[29] = Postemergence, 500 g ai/ha, 0 to 100 scale where 0 is no effect and 100 is complete control
[30] = Postemergence, 0 to 100 scale where 0 is no effect and 100 is complete control

## Cc1ccc([C@H]2CN(C)C(=O)[C@@H]2C(=O)Nc2ccccc2[S+](C)[O-])cc1Cl (single isomer, unassigned) [Compound 1016]
[1]; Setaria faberi, pre-emergence, 240 h, 125 g ai/ha, Preemergence, visual injury rating after approximately 10 d, read-out: Foxtail, Giant plant response rating (0 to 100 scale, 0 is no effect, 100 is complete control)
  pest or weed control at 125 g/ha: 90%
[1]; Setaria faberi, pre-emergence, 240 h, 500 g ai/ha, preemergence, visual injury rating about 10 d after treatment, 0 to 100 scale (0 no effect, 100 complete control), read-out: Foxtail, Giant plant response rating
  pest or weed control at 500 g/ha: 90%
[2]; [21]
  Ryegrass, Italian plant response rating: 0
[2]; Lolium multiflorum, pre-emergence, 240 h, 125 g ai/ha, Preemergence, visual injury rating after approximately 10 d, read-out: Ryegrass, Italian plant response rating (0 to 100 scale, 0 is no effect, 100 is complete control)
  pest or weed control at 125 g/ha: 0%
[3]; Echinochloa crus-galli, pre-emergence, 240 h, 125 g ai/ha, Preemergence, visual injury rating after approximately 10 d, read-out: Barnyardgrass plant response rating (0 to 100 scale, 0 is no effect, 100 is complete control)
  pest or weed control at 125 g/ha: 90%
[3]; Echinochloa crus-galli, pre-emergence, 240 h, 500 g ai/ha, preemergence, visual injury rating about 10 d after treatment, 0 to 100 scale (0 no effect, 100 complete control), read-out: Barnyardgrass plant response rating
  pest or weed control at 500 g/ha: 90%
[4]; [21]
  Kochia plant response rating: 0
[4]; Bassia scoparia, pre-emergence, 240 h, 125 g ai/ha, Preemergence, visual injury rating after approximately 10 d, read-out: Kochia plant response rating (0 to 100 scale, 0 is no effect, 100 is complete control)
  pest or weed control at 125 g/ha: 0%
[5]; [21]
  Ragweed plant response rating: 0
[5]; Ambrosia artemisiifolia, pre-emergence, 240 h, 125 g ai/ha, Preemergence, visual injury rating after approximately 10 d, read-out: Ragweed plant response rating (0 to 100 scale, 0 is no effect, 100 is complete control)
  pest or weed control at 125 g/ha: 0%
[6]; 125 g ai/ha, Preemergence, visual injury rating after approximately 10 d
  Pigweed plant response rating (0 to 100 scale, 0 is no effect, 100 is complete control): 0
[6]; [21]
  Pigweed plant response rating: 0
[7]; Cyperus difformis, read-out: Sedge, Umbrella plant response rating
  pest or weed control at 250 g/ha: 0%
[8]; Oryza sativa, read-out: Rice plant response rating
  pest or weed control at 250 g/ha: 30%
[9]
  Barnyardgrass plant response rating: 0
[10]
  Ducksalad plant response rating: 0
[11]; [22]
  Plant response rating, Wheat: 0
[11]; [23]
  Plant response rating, Wheat: 0
[12]; [24]
  Plant response rating, Foxtail, Giant: 30
[12]; Setaria faberi, post-emergence, 240 h, 500 g ai/ha, postemergence, visual injury, 0 to 100 scale (0 no effect, 100 complete control), approx. 10 d, read-out: Plant response rating, Foxtail, Giant
  pest or weed control at 500 g/ha: 80%
[13]; [22]
  Plant response rating, Ryegrass, Italian: 0
[13]; [23]
  Plant response rating, Ryegrass, Italian: 0
[14]; [24]
  Plant response rating, Barnyardgrass: 50
[14]; Echinochloa crus-galli, post-emergence, 240 h, 500 g ai/ha, postemergence, visual injury, 0 to 100 scale (0 no effect, 100 complete control), approx. 10 d, read-out: Plant response rating, Barnyardgrass
  pest or weed control at 500 g/ha: 90%
[15]; [22]
  Plant response rating, Kochia: 0
[15]; [23]
  Plant response rating, Kochia: 0
[16]; [25]
  Plant response rating, Ragweed: 0
[16]; Ambrosia artemisiifolia, post-emergence, 240 h, 125 g ai/ha, Postemergence, visual injury after approximately 10 d, 0 to 100 scale where 0 is no effect and 100 is complete control, read-out: Plant response rating, Ragweed
  pest or weed control at 125 g/ha: 0%
[17]; [22]
  Plant response rating, Corn: 0
[17]; [23]
  Plant response rating, Corn: 0
[18]; [25]
  Plant response rating, Blackgrass: 0
[18]; Alopecurus myosuroides, post-emergence, 240 h, 125 g ai/ha, Postemergence, visual injury after approximately 10 d, 0 to 100 scale where 0 is no effect and 100 is complete control, read-out: Plant response rating, Blackgrass
  pest or weed control at 125 g/ha: 0%
[19]; [22]
  Plant response rating, Galium: 0
[19]; [23]
  Plant response rating, Galium: 0
[20]; [25]
  Plant response rating, Pigweed: 0
[20]; Amaranthus retroflexus, post-emergence, 240 h, 125 g ai/ha, Postemergence, visual injury after approximately 10 d, 0 to 100 scale where 0 is no effect and 100 is complete control, read-out: Plant response rating, Pigweed
  pest or weed control at 125 g/ha: 0%

## O=C1NCC(c2ccc(C3CC3)cc2)C1C(=O)Nc1cccc(F)c1F (racemic) [Compound 501]
[1]; [26]
  Plant response rating, Foxtail, Giant: 80
[1]; [27]
  Foxtail, Giant plant response rating (0 to 100 scale, 0 is no effect, 100 is complete control): 90
[2]; [26]
  Plant response rating, Ryegrass, Italian: 0
[2]; [27]
  Ryegrass, Italian plant response rating (0 to 100 scale, 0 is no effect, 100 is complete control): 0
[3]; [26]
  Plant response rating, Barnyardgrass: 80
[3]; [27]
  Barnyardgrass plant response rating (0 to 100 scale, 0 is no effect, 100 is complete control): 90
[4]; [26]
  Plant response rating, Kochia: 0
[4]; [27]
  Kochia plant response rating (0 to 100 scale, 0 is no effect, 100 is complete control): 30
[5]; [26]
  Plant response rating, Ragweed: 0
[5]; [27]
  Ragweed plant response rating (0 to 100 scale, 0 is no effect, 100 is complete control): 50
[6]; [26]
  Plant response rating, Pigweed: 0
[6]; [27]
  Pigweed plant response rating (0 to 100 scale, 0 is no effect, 100 is complete control): 20
[7]; 13 to 15 d
  Plant response rating, Sedge, Umbrella: 0
[8]; 13 to 15 d
  Plant response rating, Rice: 0
[9]; 13 to 15 d
  Plant response rating, Barnyardgrass: 20
[10]; 13 to 15 d
  Plant response rating, Ducksalad: 85
[11]; [28]
  Wheat plant response rating: 0
[11]; [29]
  Plant response rating, Wheat: 0
[12]; [28]
  Foxtail, Giant plant response rating: 70
[12]; 500 g ai/ha
  Plant response rating, Foxtail, Giant: 80
[13]; [28]
  Ryegrass, Italian plant response rating: 0
[13]; [29]
  Plant response rating, Ryegrass, Italian: 20
[14]; [28]
  Barnyardgrass plant response rating: 50
[14]; 500 g ai/ha
  Plant response rating, Barnyardgrass: 80
[15]; [28]
  Kochia plant response rating: 0
[15]; [29]
  Plant response rating, Kochia: 0
[16]; [28]
  Ragweed plant response rating: 0
[16]; [30]
  Plant response rating, Ragweed: 0
[17]; [28]
  Corn plant response rating: 0
[17]; [29]
  Plant response rating, Corn: 30
[18]; [28]
  Blackgrass plant response rating: 30
[18]; [30]
  Plant response rating, Blackgrass: 40
[19]; [28]
  Galium plant response rating: 0
[19]; [29]
  Plant response rating, Galium: 0
[20]; [28]
  Pigweed plant response rating: 0
[20]; [30]
  Plant response rating, Pigweed: 0
